Data from paper PMC7293270 (Scientific Reports, 2020).

Assays:
[1] = system: HCC; conditions: cited from earlier work
[2] = Plasma pharmacokinetics of sorafenib with RT, with or without CsA pretreatment, in freely moving rats; format: in vivo, Sprague-Dawley rats; conditions: for Cmax / Tmax / AUC(0-t): Sprague-Dawley, rat, plasma, 40 mg/kg
Method: A freely moving rat model was designed for the current study[21] (Fig. 1A). Experimental rats were anesthetized with 1 g/mL urethane and 0.1 g/mL α-chloralose (1 mL/kg by intraperitoneal [i.p.] injection), and polyethylene tubes were then implanted in the right jugular vein for intravenous (i.v.) fluid administration. The right jugular vein was catheterized for blood sampling. The catheter traversed the subcutaneous tissue and was fixed in the dorsal neck region. After surgery, the rats were placed in an experimental cage and allowed to recover for 1 day. During the recovery period, the rats were kept warm under a light. Then, the rats were anesthetized and immobilized on a board while undergoing CT for localization of the whole liver (conventional technique, Fig. 1B) or a central area of 1.5 × 1.5 cm (SBRT technique, Fig. 1C).
The rats were randomly divided into five groups of six rats per group.
The rats were pretreated with CsA (20 mg/kg, i.p.). […] Blood samples were obtained according to a preset schedule.
Blood samples (150 µL) were withdrawn from the jugular vein with a fraction collector at 15, 30, 45, and 60 min and at 1.5, 2, 2.5, 3, 3.5 and 4 hr after drug administration. The blood samples were immediately centrifuged at 4200 × g for 10 min. The resulting plasma (50 µL) was added to 1 mL of ethyl acetate in a clean tube, vortexed for 5 min, and centrifuged at 5900 × g for 10 min. After centrifugation, the upper organic layer containing ethyl acetate was transferred to a new tube and evaporated to dryness under a nitrogen flow.
Chromatographic analysis was performed on a Model LC-20DAD HPLC system (Shimadzu, Tokyo, Japan) equipped with a Model SPD-M20A wavelength UV detector, a SIL-20AC autosampler, and an LC Solution data processing system. A […] C[18] column (50 × 2.1 mm, particle size 1.7 μm, Eclipse XDB; Agilent, Palo Alto, CA, USA) was used for HPLC separation. The mobile phase consisted of potassium dihydrogen phosphate (10 mM, pH = 3) and acetonitrile (55:45, v/v). The flow rate was set at 0.2 mL/min, and the injection volume was 5 μL. […] A peak controlled spectrum recording was selected with a range of 190–300 nm.
Pharmacokinetic parameters, including the area under the concentration vs. time curve (AUC), terminal elimination phase t1/2, Cmax, MRT, total plasma clearance and Vss, were calculated using the PK calculation software WinNonlin Standard Edition, version 1.1 (Scientific Consulting, Apex, NC, USA) using a compartmental method.

[3] = Organ distribution of sorafenib in rats; format: in vivo, Sprague-Dawley rats; conditions: for concentration at 6 h: Sprague-Dawley, rat, po, 40 mg/kg
Method: The brain, liver, heart, spleen, lung and kidney were collected and weighed. These collected samples were stored at −20 °C until analysis.
Thawed organ samples were homogenized in 50% aqueous acetonitrile (sample weight:volume ratio, 1:5), and the homogenate was then centrifuged at 13000 × g for 10 min at 4 °C. The supernatant was collected, placed in brown Eppendorf tubes, and stored at −20 °C until analysis. In brief, each organ sample (50 μL) was combined with 150 μL of IS solution (diethylstilbestrol) for protein precipitation. Finally, 20 μL of filtrate was injected into the HPLC system for analysis.

[4] = system: portal vein tumor thrombosis; experiment: Retrospective review: PVTT recanalization in HCC patients treated with sorafenib plus conventional RT or SBRT; format: in vivo, human
Method: The need for informed consent was waived by the Institutional Review Board of the Far Eastern Memorial Hospital (FEMH-IRB-108025-E) and retrospective data were collected after receiving approval from the Institutional Review Board of the Far Eastern Memorial Hospital (FEMH-IRB-108025-E). All research was performed in accordance with relevant guidelines and regulations. All tumors were staged according to the American Joint Committee on Cancer (AJCC) Cancer Staging Manual, 7th edition. A total of 90 HCC patients with PVTT were identified. […] The patients who were treated with a radiation fraction size of <5 Gy and those treated with ≥5 Gy were grouped as the conventional and the SBRT group, respectively.

[5] = set-up: method as in earlier work; conditions: cited from earlier work
[6] = cited from earlier work
[7] = system: efflux transporter P-gp; conditions: cited from earlier work
[8] = oral, CsA 20 mg/kg i.p. + RT2Gy, sorafenib 40 mg/kg 1 hr later
[9] = oral, CsA 20 mg/kg i.p. + RT2Gy, sorafenib 40 mg/kg 24 hr later
[10] = oral, CsA 20 mg/kg i.p. + RT9Gy, sorafenib 40 mg/kg 1 hr later
[11] = oral, CsA 20 mg/kg i.p. + RT9Gy, sorafenib 40 mg/kg 24 hr later
[12] = oral, CsA 20 mg/kg i.p. + sorafenib 40 mg/kg
[13] = po, RT2Gy, sorafenib 40 mg/kg 1 hr later
[14] = po, RT2Gy, sorafenib 40 mg/kg 24 hr later
[15] = po, RT9Gy, sorafenib 40 mg/kg 1 hr later
[16] = po, RT9Gy, sorafenib 40 mg/kg 24 hr later
[17] = po, sorafenib 40 mg/kg p.o. only (sham RT), rats
[18] = sorafenib + SBRT (fraction size ≥ 5 Gy), n = 18
[19] = sorafenib + conventional RT (fraction size <5 Gy), n = 25

In the case of `CNC(=O)c1cc(Oc2ccc(NC(=O)Nc3ccc(Cl)c(C(F)(F)F)c3)cc2)ccn1` [sorafenib, Sorafenib], the “Complete or partial response rate” value ([1]; HCC patients, combination of sorafenib and RT) is given as 55%, the “Reduction of HCC tumor volume” value ([1]; case report, sorafenib + RT combination regimen) is given as 39% and the Cmax [2, 8] is given as 1720 ± 960 ng/mL. The Tmax [2, 8] was 3.3 h, the Cmax [2, 9] was 7710 ± 3410 ng/mL and the Tmax [2, 9] was 3.75 h. For the same compound, the Cmax [2, 10] was 3740 ± 2170 ng/mL, the Tmax [2, 10] was 3.33 h and the Cmax [2, 11] was 5430 ± 3220 ng/mL. For the same compound, the Tmax [2, 11] was 3.92 h, the Cmax [2, 12] was 4690 ± 2310 ng/mL and the Tmax [2, 12] was 4 h. The Cmax [2, 13] was 10100 ± 5930 ng/mL, the Tmax [2, 13] was 2.92 h and the Cmax [2, 14] was 1890 ± 1080 ng/mL. It also gave a Tmax [2, 14] of 3.4 h, an AUC(0-t) ([2]; po, RT2Gy, sorafenib 40 mg/kg p.o. 1 hr later) of 27800 ng·h/mL and an AUC(0-t) ([2]; po, RT2Gy, sorafenib 40 mg/kg p.o. 24 hr later) of 4950 ng·h/mL. For the same compound, the Cmax [2, 15] was 12300 ± 6300 ng/mL, the Tmax [2, 15] was 3.25 h and the Cmax [2, 16] was 8690 ± 2730 ng/mL. It also gave a Tmax [2, 16] of 3.08 h, an AUC(0-t) ([2]; po, RT9Gy, sorafenib 40 mg/kg p.o. 1 hr later) of 31500 ng·h/mL and an AUC(0-t) ([2]; po, RT9Gy, sorafenib 40 mg/kg p.o. 24 hr later) of 24300 ng·h/mL. The AUC(0-t) ([2]; po, CsA 20 mg/kg i.p. + RT2Gy, sorafenib 40 mg/kg p.o. 1 hr later) was 4630 ng·h/mL, the AUC(0-t) ([2]; po, CsA 20 mg/kg i.p. + RT2Gy, sorafenib 40 mg/kg p.o. 24 hr later) was 18600 ng·h/mL and the AUC(0-t) ([2]; po, CsA 20 mg/kg i.p. + RT9Gy, sorafenib 40 mg/kg p.o. 1 hr later) was 10100 ng·h/mL. For the same compound, the AUC(0-t) ([2]; po, CsA 20 mg/kg i.p. + RT9Gy, sorafenib 40 mg/kg p.o. 24 hr later) was 12900 ng·h/mL, the AUC(0-t) ([2]; po, CsA 20 mg/kg i.p. + sorafenib 40 mg/kg p.o.) was 13100 ng·h/mL and the AUC(0-t) [2, 17] was 12000 ng·h/mL. For the same compound, the Cmax [2, 17] was 4390 ± 2280 ng/mL, the Tmax [2, 17] was 3.75 h and the “Increase in concentration of sorafenib” value ([2]; both concurrent and sequential RT9Gy regimens compared with sorafenib alone) was “more than 2 fold”. For the same compound, the “Organ distribution vs sham group” value ([3]; RT2Gy and RT9Gy under the sequential regimen) was “did not differ significantly”, the “Level of sorafenib in organs vs sham group” value ([3]; RT9Gy concurrent with sorafenib, all organs except the brain) was “significantly decreased” and the concentration at 6 h ([3]; brain) was 140 ± 150 ng/g. For the same compound, the concentration at 6 h ([3]; heart) was 1200 ± 360 ng/g, the concentration at 6 h ([3]; kidney) was 1930 ± 750 ng/g and the concentration at 6 h ([3]; liver) was 4430 ± 1560 ng/g. The concentration at 6 h ([3]; lung) was 3200 ± 1000 ng/g, the concentration at 6 h ([3]; spleen) was 1420 ± 530 ng/g and the “No response (recanalization)” value [4, 18] was 1/18 (5.6%). For the same compound, the Partial recanalization [4, 18] was 12/18 (66.7%), the “Increase in complete recanalization, SBRT vs conventional RT” value ([4]; sorafenib + SBRT compared to sorafenib + conventional RT) was 3 fold and the “No response (recanalization)” value [4, 19] was 10/25 (40.0%). The Partial recanalization [4, 19] was 13/25 (52.0%), the “Permeability across the gastrointestinal (GI) epithelium” value [5] was “high” and the “Reduction of AUC” value ([6]; average, concomitant administration of the CYP3A4 inducer rifampicin) was 37%. For the same compound, the “Orally administered dose recovered as unchanged drug” value ([6]; by biliary excretion or lack of absorption) was “Approximately 50%”, the “Binding to P-gp” value [7] was “moderate affinity” and the P-gp substrate affinity [7] was “moderate-affinity”.
